{
  "source": "patent US11939304B1",
  "about": "“Ethyl 6-(5-(3-fluorophenyl)-4-phenyl-4H-1,2,4-triazol-3-ylthio)hexanoate as an antimicrobial compound” (KING FAISAL UNIVERSITY, priority 2023, dated 2024)",
  "key": {"[1]": {"system": "Chrysosporium keratinophilum", "assay": "agar plate disc-diffusion, antifungal inhibition zone", "assay_type": "cell-based", "details": "Sabouraud's dextrose agar, 37° C., 72 hours, DMSO zone subtracted", "procedure": "(§1) The agar plate disc-diffusion method was applied. […] The discs were then placed onto the surface of agar plates (nutrient agar for bacteria and Sabouraud's dextrose agar for fungi) seeded with the test organism. Each plate contained 15 mL of the agar medium, previously seeded with 0.2 mL of the broth culture of each organism pregrown for 18 hours. The plates were incubated at 37° C. for 48 hours, and 72 hours for fungi. The inhibition zones were measured in mm. Discs impregnated with DMSO were used as a control, and its inhibition zone was subtracted from the tested compound actual inhibition zone."}, "Aspergillus flavus": {"system": "Aspergillus flavus", "assay": "agar plate disc-diffusion, antifungal inhibition zone", "assay_type": "cell-based", "details": "Sabouraud's dextrose agar, 37° C., 72 hours, DMSO zone subtracted", "procedure": "as §1"}, "Staphylococcus aureus": {"system": "Staphylococcus aureus", "assay": "agar plate disc-diffusion, antibacterial inhibition zone", "assay_type": "cell-based", "details": "nutrient agar, 37° C., 48 hours, DMSO zone subtracted", "procedure": "as §1"}, "Escherichia coli": {"system": "Escherichia coli", "assay": "agar plate disc-diffusion, antibacterial inhibition zone", "assay_type": "cell-based", "details": "nutrient agar, 37° C., 48 hours, DMSO zone subtracted", "procedure": "as §1"}, "Pseudomonas aeruginosa": {"system": "Pseudomonas aeruginosa", "assay": "agar plate disc-diffusion, antibacterial inhibition zone", "assay_type": "cell-based", "details": "nutrient agar, 37° C., 48 hours, DMSO zone subtracted", "procedure": "as §1"}, "Bacillus cereus": {"system": "Bacillus cereus", "assay": "agar plate disc-diffusion, antibacterial inhibition zone", "assay_type": "cell-based", "details": "nutrient agar, 37° C., 48 hours, DMSO zone subtracted", "procedure": "as §1"}, "[2]": {"details": "A = concentration of comp. = 10,000 μL"}, "[3]": {"details": "B = concentration of comp. = 30,000 μL"}, "[4]": {"details": "C = concentration of comp. = 50,000 μL"}},
  "data": [
    {"compound": "CCOC(=O)CCCCCSc1nnc(-c2cccc(F)c2)n1-c1ccccc1", "note": "[III, ethyl 6-(5-(3-fluorophenyl)-4-phenyl-4H-1,2,4-triazol-3-ylthio)hexanoate]", "values": [
      {"measurement": "melting point", "result": "107 to 109", "unit": "°C"},
      {"measurement": "inhibition zone, Chrysosporium keratinophilum, A", "setting": "[1]; [2]", "result": 23, "unit": "mm"},
      {"measurement": "inhibition zone, Chrysosporium keratinophilum, B", "setting": "[1]; [3]", "result": 28, "unit": "mm"},
      {"measurement": "inhibition zone, Chrysosporium keratinophilum, C", "setting": "[1]; [4]", "result": 42, "unit": "mm"},
      {"measurement": "inhibition zone, Aspergillus flavus, A", "setting": "Aspergillus flavus; [2]", "result": 24, "unit": "mm"},
      {"measurement": "inhibition zone, Aspergillus flavus, B", "setting": "Aspergillus flavus; [3]", "result": 27, "unit": "mm"},
      {"measurement": "inhibition zone, Aspergillus flavus, C", "setting": "Aspergillus flavus; [4]", "result": 38, "unit": "mm"},
      {"measurement": "inhibition zone, Staphylococcus aureus, A", "setting": "Staphylococcus aureus; [2]", "result": 12, "unit": "mm"},
      {"measurement": "inhibition zone, Staphylococcus aureus, B", "setting": "Staphylococcus aureus; [3]", "result": 19, "unit": "mm"},
      {"measurement": "inhibition zone, Staphylococcus aureus, C", "setting": "Staphylococcus aureus; [4]", "result": 23, "unit": "mm"},
      {"measurement": "inhibition zone, Escherichia coli, A", "setting": "Escherichia coli; [2]", "result": 27, "unit": "mm"},
      {"measurement": "inhibition zone, Escherichia coli, B", "setting": "Escherichia coli; [3]", "result": 35, "unit": "mm"},
      {"measurement": "inhibition zone, Escherichia coli, C", "setting": "Escherichia coli; [4]", "result": 50, "unit": "mm"},
      {"measurement": "inhibition zone, Pseudomonas aeruginosa, A", "setting": "Pseudomonas aeruginosa; [2]", "result": 26, "unit": "mm"},
      {"measurement": "inhibition zone, Pseudomonas aeruginosa, B", "setting": "Pseudomonas aeruginosa; [3]", "result": 29, "unit": "mm"},
      {"measurement": "inhibition zone, Pseudomonas aeruginosa, C", "setting": "Pseudomonas aeruginosa; [4]", "result": 41, "unit": "mm"},
      {"measurement": "inhibition zone, Bacillus Cereus, A", "setting": "Bacillus cereus; [2]", "result": 28, "unit": "mm"},
      {"measurement": "inhibition zone, Bacillus Cereus, B", "setting": "Bacillus cereus; [3]", "result": 30, "unit": "mm"},
      {"measurement": "inhibition zone, Bacillus Cereus, C", "setting": "Bacillus cereus; [4]", "result": 41, "unit": "mm"}
    ]}
  ]
}
